Experimental data taken from article PMC11268423 (Science Advances, 2024).
“And” between values parts separate entries of the source, which are not always exact repeats. Equal entries are not always repeated.

What was measured:
[1] = system: SARS-CoV-2 M^pro T304I mutant virus; assay type: cell-based
[2] = system: SARS-CoV-2 M^pro T304I; details: cited from earlier work
[3] = system: SARS-CoV-2 M^pro T21I+S144A+T304I mutant virus; assay type: cell-based
[4] = system: SARS-CoV-2 M^pro L50F; details: cited from earlier work
[5] = system: SARS-CoV-2 M^pro T21I; details: cited from earlier work
[6] = system: SARS-CoV-2 M^pro E166V; details: cited from earlier work

For CC(C)(C)[C@H](NC(=O)C(F)(F)F)C(=O)N1C[C@H]2[C@@H]([C@H]1C(=O)N[C@H](C#N)C[C@@H]1CCNC1=O)C2(C)C [Nirmatrelvir], which “Fold over WA-1” value [1] is on record?
The value was 3.4 fold.

What about the “fold resistance to nirmatrelvir” value [2] of the same molecule?
The value was 5.5 fold.

And the “Fold over WA-1” value [3]?
The value was > 20 fold and 27.8 fold.

What about the “fold resistance to nirmatrelvir” value [4] of the same molecule?
Its value is 4.2 fold.

What about the “fold resistance to nirmatrelvir” value [5] of the same molecule?
Its value is 4.6 fold.

What about the “fold resistance to nirmatrelvir in vitro” value [6] of the same molecule?
Its value is “up to 288 fold”.
